Type in all cases: protein assay
The target of test [1] is T1, Alpha-1,2-mannosidase (BT_3990) (Bacteroides thetaiotaomicron) (UniProt Q8A0N1).
T1 sequence (whole entry): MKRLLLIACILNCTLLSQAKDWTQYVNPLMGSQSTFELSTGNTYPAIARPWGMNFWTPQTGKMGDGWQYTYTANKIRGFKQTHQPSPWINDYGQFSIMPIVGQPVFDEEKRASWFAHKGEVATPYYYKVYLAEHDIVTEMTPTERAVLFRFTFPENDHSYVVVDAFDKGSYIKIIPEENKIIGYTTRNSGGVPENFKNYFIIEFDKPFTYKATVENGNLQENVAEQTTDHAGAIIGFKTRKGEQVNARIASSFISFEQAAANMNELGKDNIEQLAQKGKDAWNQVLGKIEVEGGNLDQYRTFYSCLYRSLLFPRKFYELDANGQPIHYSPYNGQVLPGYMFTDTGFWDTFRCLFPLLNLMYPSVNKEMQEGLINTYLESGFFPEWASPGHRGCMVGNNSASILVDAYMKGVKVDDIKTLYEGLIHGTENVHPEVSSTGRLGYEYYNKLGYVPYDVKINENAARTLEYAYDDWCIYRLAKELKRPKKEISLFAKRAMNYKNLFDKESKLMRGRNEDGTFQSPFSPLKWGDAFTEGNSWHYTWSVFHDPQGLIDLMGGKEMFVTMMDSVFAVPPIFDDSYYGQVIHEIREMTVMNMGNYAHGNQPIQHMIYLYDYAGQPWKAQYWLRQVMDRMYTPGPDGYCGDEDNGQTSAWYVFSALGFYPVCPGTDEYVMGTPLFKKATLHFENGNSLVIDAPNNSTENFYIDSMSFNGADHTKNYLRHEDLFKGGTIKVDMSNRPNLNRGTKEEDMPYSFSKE
Briefly: Activity of Bacteroides thetaiotaomicron GH92 alpha-mannosidase 3990 assessed as recovery of enzyme activity at 1 mM relative to enzyme activity in presence of calcium.

Test [2] deals with T2, Alpha-1,2-mannosidase (BT_2199) (Bacteroides thetaiotaomicron) (UniProt Q8A5N9).
T2 sequence (whole entry): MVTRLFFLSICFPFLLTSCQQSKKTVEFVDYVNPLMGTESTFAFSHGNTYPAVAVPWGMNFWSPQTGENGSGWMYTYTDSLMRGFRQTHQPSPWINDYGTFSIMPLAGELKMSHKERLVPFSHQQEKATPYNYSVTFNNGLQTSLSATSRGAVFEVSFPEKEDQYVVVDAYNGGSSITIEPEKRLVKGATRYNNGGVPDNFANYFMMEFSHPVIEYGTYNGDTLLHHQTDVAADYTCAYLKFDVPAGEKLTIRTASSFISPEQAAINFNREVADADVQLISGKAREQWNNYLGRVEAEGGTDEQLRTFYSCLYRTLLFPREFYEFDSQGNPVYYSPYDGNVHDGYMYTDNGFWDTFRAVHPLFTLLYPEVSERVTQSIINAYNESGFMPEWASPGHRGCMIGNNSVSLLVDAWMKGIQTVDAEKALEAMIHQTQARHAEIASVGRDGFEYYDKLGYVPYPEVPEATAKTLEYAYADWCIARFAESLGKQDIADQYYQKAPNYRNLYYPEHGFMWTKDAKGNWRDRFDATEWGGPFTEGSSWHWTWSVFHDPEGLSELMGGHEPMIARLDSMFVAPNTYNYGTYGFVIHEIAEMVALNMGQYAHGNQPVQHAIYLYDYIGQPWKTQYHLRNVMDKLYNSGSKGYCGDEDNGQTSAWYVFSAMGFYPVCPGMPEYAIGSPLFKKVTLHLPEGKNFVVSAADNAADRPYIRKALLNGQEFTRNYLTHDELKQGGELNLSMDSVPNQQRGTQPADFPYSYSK
Briefly: Activity of Bacteroides thetaiotaomicron GH92 alpha-mannosidase 2199 assessed as recovery of enzyme activity at 1 mM in presence of 7 mM Sc(3+) ions and in presence of 5 mM EDTA in 100 mM pH 7 MOPS buffer relative to enzyme activity in presence of calcium.

For test [3], the target named is T1, Alpha-1,2-mannosidase (BT_3990) (Bacteroides thetaiotaomicron). The experiment in a line: Activity of Bacteroides thetaiotaomicron GH92 alpha-mannosidase 3990 assessed as recovery of enzyme activity at 1 mM in presence of 7 mM Mn(2+) ions and in presence of 5 mM EDTA in 100 mM pH 7 MOPS buffer relative to enzyme activity in presence of calcium.
The target is the same in test [4]. The experiment in a line: Activity of Bacteroides thetaiotaomicron GH92 alpha-mannosidase 3990 assessed as recovery of enzyme activity at 1 mM in presence of 7 mM Sr(2+) ions and in presence of 5 mM EDTA in 100 mM pH 7 MOPS buffer relative to enzyme activity in presence of calcium.
The target in test [5] is T2, Alpha-1,2-mannosidase (BT_2199) (Bacteroides thetaiotaomicron). The experiment in a line: Activity of Bacteroides thetaiotaomicron GH92 alpha-mannosidase 2199 assessed as recovery of enzyme activity at 1 mM in presence of 7 mM V(3+) ions and in presence of 5 mM EGTA in 100 mM pH 7 MOPS buffer relative to enzyme activity in presence of calcium.
Test [6] shares this target. The experiment in a line: Activity of Bacteroides thetaiotaomicron GH92 alpha-mannosidase 2199 assessed as recovery of enzyme activity at 1 mM in presence of 7 mM Be(2+) ions and in presence of 5 mM EGTA in 100 mM pH 7 MOPS buffer relative to enzyme activity in presence of calcium.
Test [7] concerns the target T1, Alpha-1,2-mannosidase (BT_3990) (Bacteroides thetaiotaomicron). Briefly: Activity of Bacteroides thetaiotaomicron GH92 alpha-mannosidase 3990 assessed as recovery of enzyme activity at 1 mM in presence of 7 mM Mg(2+) ions and in presence of 5 mM EGTA in 100 mM pH 7 MOPS buffer relative to enzyme activity in presence of calcium.
Test [8] has the same target. Briefly: Activity of Bacteroides thetaiotaomicron GH92 alpha-mannosidase 3990 assessed as recovery of enzyme activity at 1 mM in presence of 7 mM Mg(2+) ions and in presence of 5 mM EDTA in 100 mM pH 7 MOPS buffer relative to enzyme activity in presence of calcium.
For test [9] the target is unchanged. The experiment in a line: Activity of Bacteroides thetaiotaomicron GH92 alpha-mannosidase 3990 assessed as recovery of enzyme activity at 1 mM in presence of 7 mM Ti(3+) ions and in presence of 5 mM EDTA in 100 mM pH 7 MOPS buffer relative to enzyme activity in presence of calcium.
For test [10] the target is unchanged. Briefly: Activity of Bacteroides thetaiotaomicron GH92 alpha-mannosidase 3990 assessed as recovery of enzyme activity at 1 mM in absence of metal and in presence of 5 mM EGTA in 100 mM pH 7 MOPS buffer relative to enzyme activity in presence of calcium.
The target is the same in test [11]. Briefly: Activity of Bacteroides thetaiotaomicron GH92 alpha-mannosidase 3990 assessed as recovery of enzyme activity at 1 mM in presence of 7 mM Ca(2+) ions and in presence of 5 mM EGTA in 100 mM pH 7 MOPS buffer relative to enzyme activity in presence of calcium.
For test [12], the target named is T2, Alpha-1,2-mannosidase (BT_2199) (Bacteroides thetaiotaomicron). The experiment in a line: Activity of Bacteroides thetaiotaomicron GH92 alpha-mannosidase 2199 assessed as recovery of enzyme activity at 1 mM in presence of 7 mM Sc(3+) ions and in presence of 5 mM EGTA in 100 mM pH 7 MOPS buffer relative to enzyme activity in presence of calcium.

Molecules are shown by their SMILES.

Consider `OC[C@H]1O[C@H](OC[C@H]2O[C@H](O)[C@@H](O)[C@@H](O)[C@@H]2O)[C@@H](O)[C@@H](O)[C@@H]1O`, for which, in test [1], the Activity amounted to 65%.
Regarding `O=[N+]([O-])c1ccc(O[C@H]2O[C@H](CO)[C@@H](O)[C@H](O)[C@@H]2O)cc1`, the Activity turned out to be 0% in test [2]; 13% in [3]; 14% in [4]; 0% in test [5]; 0% in test [6]; 0% in [7]. Further, the Activity in test [8] is 0%; in test [9], 0%; in test [10] it was 0%; in test [11], 100%; in test [12], 0%.

The values above are taken from ChEMBL document CHEMBL1250451, “Mechanistic insights into a Ca2+-dependent family of alpha-mannosidases in a human gut symbiont” (Nat Chem Biol, 2010).
